The source of these data is BindingDB's records for doi:10.1016/s0960-894x(00)00661-2 (Niddk, 2001).

The experiment has as its target T1, Corticotropin-releasing factor receptor 1 (Rattus norvegicus, UniProt P35353).
T1 sequence (P35353 whole entry): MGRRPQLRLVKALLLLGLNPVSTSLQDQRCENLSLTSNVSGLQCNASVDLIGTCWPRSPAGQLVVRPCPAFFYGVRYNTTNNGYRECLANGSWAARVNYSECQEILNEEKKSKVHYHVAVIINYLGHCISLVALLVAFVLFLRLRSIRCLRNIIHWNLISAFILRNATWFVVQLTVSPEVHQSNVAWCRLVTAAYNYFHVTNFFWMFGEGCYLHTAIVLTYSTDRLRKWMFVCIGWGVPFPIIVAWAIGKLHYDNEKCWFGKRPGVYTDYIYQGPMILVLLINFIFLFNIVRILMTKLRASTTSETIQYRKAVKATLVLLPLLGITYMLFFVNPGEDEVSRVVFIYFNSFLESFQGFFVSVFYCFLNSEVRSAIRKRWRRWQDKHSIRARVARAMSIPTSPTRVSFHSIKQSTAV
The experiment is described as follows: ChEBML_51283. The text has this:
Binding affinity towards Corticotropin releasing hormone receptor type 1 of rat cerebellum using [125I]Tyr-sauvagine as radioligand.

Each structure is given as a SMILES string.

As to `CCC[CH2][Sn]([CH2]CCC)([CH2]CCC)[c]1cc(Cl)c(Nc2nc(C)nc(N(CCC)CC3CC3)c2Cl)c(Cl)c1` [5-Chloro-N-cyclopropylmethyl-N'-(2,6-dichloro-4-tributylstannanyl-phenyl)-2-methyl-N-propyl-pyrimidine-4,6-diamine], the Ki was determined as 3 nM.

The term Ki denotes the equilibrium dissociation constant of an inhibitor or competing ligand from its target.
